The source of these data is PubChem BioAssay AID179 (DTP/NCI, 2004).

Molecules are shown by their SMILES. Calls of active or inactive are those of the source.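 Rule for the calls: active = compounds giving half or more protection of infected cells from virus-caused growth loss, again on retest; inactive = the rest.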 Where a SMILES comes first, the peptide text is derived from it. [ ]: non-standard residue; d: D form. The star is where a group is joined. Ac5c = NC1(C(=O)O)CCCC1; Cbz = O=C(OCc1ccccc1)*; Boc = CC(C)(C)OC(=O)*; tBu = CC(C)(C)*

In this assay the test system is CEM cells HIV-1 protection, formazan growth assay. As to the kind of experiment: NCI AIDS Antiviral Assay. To be noted: for IC50: measured here: growth of uninfected CEM cells. A digest of the protocol: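 Screen of anti-HIV-1 activity in human CEM cells using a formazan-based growth measurement at five drug concentrations. Hits with 50% or greater protection were repeated, and confirmation required reproducible complete protection.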

As to `CC1COC(c2cn[nH]c2C(N)=O)C1O` (centres undefined), the EC50 (as a rule, the midpoint of the concentration-response curve) is above 200 µM and the IC50 – broadly, the point on the concentration scale where inhibition reaches its midpoint – was above 200 µM.

In the case of `CCCCOP(=O)(/C=C\c1ccccn1)OCCCC`, the EC50 was above 120 µM and the IC50 is above 120 µM.

For the compound `CC(OC(C)(C)C)C1NC(=O)C(CCCCNC(=O)OC(C)(C)C)NC(=O)C(Cc2c[nH]c3ccccc23)NC(=O)C(Cc2ccccc2)NC(=O)C2(CCCC2)NC(=O)C(Cc2ccccc2)NC1=O` (centres undefined) (cyclo([Ac5c]FWK(Boc)T(tBu)F); configuration not given here), the EC50 was above 100 µM and the IC50 was 18.6 µM.

Turning to `CCOC(=O)C1SCCC1(C)O` (centres undefined), the result was inactive.

As to `c1ccc2c(c1)[nH]c1cnc3c4ncccc4[nH]c3c12`, the result was inactive.

Consider `CS(=O)(=O)C1S(=O)(=O)OCCOS1(=O)=O`, for which the EC50 was above 891 µM and the IC50 is above 891 µM.

For `ClCCCCCc1c2nc(c(CCCCCCl)c3ccc([nH]3)c(CCCCCCl)c3ccc([nH]3)c(CCCCCCl)c3nc1C=C3)C=C2`, the EC50 was above 200 µM and the IC50 is above 200 µM.

Regarding `COC(=O)C1(NC(=O)C(Cc2ccccc2)NC(=O)C(NC(=O)C(CCCCNC(=O)OC(C)(C)C)NC(=O)C(Cc2c[nH]c3ccccc23)NC(=O)C(Cc2ccccc2)NC(=O)OCc2ccccc2)C(C)OC(C)(C)C)CCCC1` (centres undefined) (Cbz-FWK(Boc)T(tBu)F[Ac5c]-OMe; configuration not given here), the EC50 is above 200 µM and the IC50 was 115 µM.

With `CCc1ccccc1NC(=O)C(=O)C(C(=O)c1ccc(OC)cc1)c1ccc(OC)cc1` (centres undefined), the outcome was inactive.

For the compound `CO[C@H]1c2cccc3cccc(c23)[C@@H]1n1[nH]c(=O)n(C(C)(C)C)c1=O`, the EC50 is above 200 µM and the IC50 was above 200 µM.

As for `OCC(O)C(OC1OC(CO)C(O)C(O)C1O)c1nn(-c2ccccc2)c2nc3cc(Cl)c(Cl)cc3cc12` (centres undefined), the outcome was inactive.

On to `N[C@@H]1C[C@H](N)c2c(Cl)sc(Cl)c21`, for which the EC50 was above 200 µM and the IC50 is 141 µM.

As for `CCC12C=CCN3CCC4(C(=C(C(=O)OC)C1)Nc1ccccc14)[C@H]32` (some centres undefined), the EC50 was above 120 µM and the IC50 was 5.25 µM.

For `CCOC(=O)[C@@]12C[C@@H](C#N)C1N(Cc1ccccc1)[C@@H]1ON=C(c3ccc(Cl)cc3)[C@@H]1C2` (some centres undefined), the result was inactive.

On to `COC(=O)C(CC(=O)c1c[nH]c2ccccc12)c1c[nH]c2ccccc12` (centres undefined), for which the outcome was inactive.

Take `CC(C(=O)c1cc(O)c(O)cc1C(O)(C(F)(F)F)C(F)(F)F)C(O)(C(F)(F)F)C(F)(F)F` (centres undefined): the EC50 is 70.8 µM and the IC50 is above 100 µM.

As for `O=C1CNCCNCC(=O)Nc2ccccc2-c2ccccc2N1`, the outcome was inactive.

Turning to `c1cc[c]([Sn]([O]c2cccc3cccnc23)([c]2ccccc2)[c]2ccccc2)cc1`, the outcome was inactive.

On to `O=C1NCC(=O)c2ncn(C3OC(CO)C(O)C3O)c2N1` (centres undefined), for which the EC50 was above 603 µM and the IC50 was above 603 µM.

Consider `CN(C)C(=O)C1(c2ccc(Cl)cc2)CCN(CCCC(=O)c2ccc(F)cc2)CC1`, for which the EC50 was above 79.4 µM and the IC50 came to 69.2 µM.

In the case of `O=C1NC(=O)C(c2ccccc2)O1` (centres undefined), the EC50 was above 1410 µM and the IC50 stood at 447 µM.

For `Nc1nn2c(C(Br)Br)cc(C(Br)Br)nc2c1[N+](=O)[O-]`, the EC50 is above 200 µM and the IC50 was 0.525 µM.

On to `Cc1nc(-n2nc(-c3ccccc3)cc2-c2ccccc2)sc1C(=O)/C=C/c1ccccc1`, for which the EC50 is above 16.2 µM and the IC50 stood at 8.32 µM.

`CCN(CCCc1ccccc1)CCCc1ccccc1`: the EC50 is above 200 µM and the IC50 came to 105 µM.

As for `C=CC1(CC/C(=C\[N+](=O)[O-])c2ccc(OC)c(OC)c2)OCC(C)(C)CO1`, the EC50 was above 200 µM and the IC50 was 17.4 µM.

As for `COc1ccccc1-n1c(N)c2c(C)c(-c3ccccc3)[nH]c2nc1=S`, the EC50 was above 200 µM and the IC50 came to 38 µM.

In the case of `Cc1ccc(C(=O)c2ccccc2C(=O)O)cc1C(=O)O`, the EC50 was above 200 µM and the 50% inhibitory concentration (IC50) is above 200 µM.

Consider `CCCC(NCCNC(CCC)C(=O)O)C(=O)O` (centres undefined), for which the EC50 was above 589 µM and the concentration for half-maximal inhibition (IC50) is above 589 µM.

For `COc1ccccc1NC(=O)C1=C(C)NC(C)=C(C(=O)Nc2ccccc2OC)C1c1ccccc1[N+](=O)[O-]`, the EC50 is above 13.5 µM and the IC50 was above 13.5 µM.

Turning to `CC(C)[C@@H](C)[C@@]1(C)C[C@@H]1[C@@H](C)[C@H]1CC[C@@H]([C@@H]2CC=C3C[C@@H](O)CC[C@]3(C)C2=O)[C@]1(C)CCO`, the EC50 is above 200 µM and the IC50 came to 8.51 µM.

As to `CCCCCC/C=C\CCCCCCCCC(=O)c1cccc(OC)c1OC`, the EC50 was above 200 µM and the IC50 is above 200 µM.

Turning to `CC(=O)NC1=N/C(=C/c2cc([N+](=O)[O-])ccc2O)CN1C`, the EC50 was above 200 µM and the IC50 is above 200 µM.

As to `COC(=O)C(=O)/C(=C\N1C(=O)CC(=O)NC1=S)C(=O)c1ccc([N+](=O)[O-])cc1`, the EC50 was above 200 µM and the IC50 is above 200 µM.

`COC(=O)C1c2c(C)cc3n2C(C=CC3)C1C(=O)OC` (centres undefined): the EC50 is above 324 µM and the IC50 came to 115 µM.

Consider `CCOC(=O)/C(=C/c1ccc(Br)cc1)C(=O)c1ccccc1`, for which the EC50 is above 10.5 µM and the IC50 is above 10.5 µM.

`Cc1cc(C)c(-c2c(O)c(O)c(-c3ccccc3)c3ccccc23)c(C)c1`: the EC50 was above 200 µM and the concentration for half-maximal inhibition (IC50) was determined as 7.76 µM.

Consider `COc1ccccc1/C=C/C(=O)O`, for which the EC50 is above 525 µM and the IC50 was above 525 µM.

As for `O=C(CCCCCCCCCCc1ccccc1)c1c(O)cccc1O`, the EC50 was above 14.8 µM and the IC50 was above 14.8 µM.

`O=C(Nc1nc(=S)[nH][nH]1)C(=O)C(c1cnc2ccc([N+](=O)[O-])cc2n1)[N+](=O)[O-]` (centres undefined): the EC50 was above 447 µM and the IC50 was 79.4 µM.

As for `OC1CCCC2CCC[N-]C12.OC1CCCC2CCC[N-]C12.[Mn+2]` (centres undefined), the outcome was inactive.

For the compound `Fc1ccc(C2=NOC3COC4C=CC=CC4OCC23)cc1` (centres undefined), the EC50 was above 120 µM and the IC50 is above 120 µM.

Take `CC(C)(c1ccccc1)C(C)(C)c1nc(-c2ccccc2)cc(-c2ccccc2)n1`: the EC50 was above 3.72 µM and the IC50 is above 3.72 µM.

For the compound `COc1cccc(CCCNC(=O)Cc2cc(OC)c(OC)cc2CO)c1`, the EC50 was above 200 µM and the IC50 was found to be 14.5 µM.

As to `Cn1cnc(N2CCCC2)c(C#N)c1=O`, the EC50 was above 200 µM and the IC50 is above 200 µM.

With `CN=C(NCCCN1CCOCC1)c1ccc(NC(=O)c2ccc(C(=O)Nc3ccc(C(=NC)NCCCN4CCOCC4)cc3)cc2)cc1`, the EC50 was above 200 µM and the IC50 was 120 µM.

On to `O=[N+]([O-])c1ccc2c(c1)NC(O)C(O)N2` (centres undefined), for which the EC50 is above 200 µM and the IC50 was 174 µM.

As to `Cc1cc2c(C)n(Cc3ccccc3Cl)nc2c(C(=O)O)c1C`, the EC50 is above 759 µM and the IC50 worked out at 148 µM.

On to `Cn1c(=O)c2nc(-c3ccccc3)nnc2n(C)c1=O`, for which the EC50 is above 200 µM and the IC50 amounted to 93.3 µM.

Regarding `N#Cc1nc(CCc2nc(C#N)c(N)o2)oc1N`, the EC50 is above 200 µM and the IC50 was above 200 µM.

Consider `O=C(N=C1C(=O)C2(CCCCC2)C2(N=C(c3ccccc3)OC2=O)C12CCCCC2)c1ccccc1` (centres undefined), for which the EC50 is above 27.5 µM and the IC50 came out at 10 µM.

For `CC(C)(C)OC(=O)N1CC(C)(C)N2C(=O)C3(CCCO3)C12` (centres undefined), the EC50 was 33.9 µM and the IC50 is 347 µM.

For `O=C(NNc1nc(Cl)nc(Cl)n1)c1ccccc1`, the EC50 was above 200 µM and the IC50 is above 200 µM.

In the case of `CC1=NNC(=O)C1N=Nc1c(C)n(C)n(-c2ccccc2)c1=O` (centres undefined), the EC50 is above 200 µM and the IC50 came to 16.6 µM.

As to `Cc1c(Cc2ccccc2)n(C(C)OCCO)c(=O)[nH]c1=O` (centres undefined), the EC50 is above 200 µM and the IC50 was above 200 µM.

For `C=C1C(O)O[C@@H]2O[C@@]3(C)CC[C@H]4[C@H](C)CC[C@@H]1[C@@]24OO3` (some centres undefined), the EC50 is above 200 µM and the IC50 stood at 8.71 µM.

As to `Cc1ccc(S(=O)(=O)NC(=O)NN2CCCCCC2)cc1`, the EC50 was above 200 µM and the IC50 was above 200 µM.

Regarding `COC1/C=C/OC2(C)Oc3c(C)c(O)c4c(O)c(c(C=NNC(=O)c5ccc(N)cc5)c(O)c4c3C2=O)NC(=O)/C(C)=C/C=C/C(C)C(O)C(C)C(O)C(C)C(OC(C)=O)C1C` (centres undefined), the EC50 is above 138 µM and the IC50 came out at 107 µM.

`CC(=O)O[C@H]1C[C@@H]2OC3C=C(C)CCC3(C)[C@@]1(C)[C@@]21CO1` (some centres undefined): the EC50 was above 2 µM and the IC50 was 0.105 µM.

`CSc1nc(NC2OC(COC(C)=O)C(OC(C)=O)C(OC(C)=O)C2OC(C)=O)c(N=CC=Nc2c(NC3OC(COC(C)=O)C(OC(C)=O)C(OC(C)=O)C3OC(C)=O)nc(SC)n(C)c2=O)c(=O)n1C` (centres undefined): the result was inactive.

As for `Cc1cc(C(O)CCCc2ccccc2)cc(C)c1O` (centres undefined), the EC50 is above 251 µM and the IC50 is 83.2 µM.

On to `CCOC(=O)NC1CS(=O)(=O)CC1Cl` (centres undefined), for which the EC50 is above 200 µM and the IC50 was above 200 µM.

Turning to `Cc1nc2n[nH]c(N)c2nc1C`, the EC50 is above 83.2 µM and the IC50 was above 83.2 µM.

Take `C[C@H]1C(=O)CC[C@]2(C)CCC(C(C)(C)O)CC12O` (some centres undefined): the outcome was inactive.

`CCCc1cc(=O)oc2c3c(cc(OC(C)COC)c12)O[C@H](C)[C@@H](C)[C@@H]3O` (some centres undefined): the EC50 was 4.68 µM and the IC50 was 29.5 µM.

As for `O=C1CC2C1C1C=CC2n2c(=O)n(-c3ccccc3)c(=O)n21` (centres undefined), the EC50 was above 224 µM and the IC50 was above 224 µM.

As to `NC(=O)SCC(=O)Nc1ccc2cccc3c2c1CC3`, the result was inactive.

On to `CCOC(=O)N/N=C(/N)Cc1ccccc1`, for which the EC50 was above 200 µM and the IC50 was above 200 µM.

As for `CC(C)C(NC(=O)C(Cc1ccccc1)NC(=O)[C@H]1CCC[C@H]1NC(=O)C(N)Cc1ccc(O)cc1)C(N)=O` (some centres undefined), the outcome was inactive.

In the case of `CCC/[N+]([O-])=C/c1ccc([N+](=O)[O-])o1`, the result was inactive.
